Bounds are passed on as bounds.

Sequence of MEF2D/HDAC4 protein-protein interactions (Q14814 whole entry, species assumed, the tested form may be a part): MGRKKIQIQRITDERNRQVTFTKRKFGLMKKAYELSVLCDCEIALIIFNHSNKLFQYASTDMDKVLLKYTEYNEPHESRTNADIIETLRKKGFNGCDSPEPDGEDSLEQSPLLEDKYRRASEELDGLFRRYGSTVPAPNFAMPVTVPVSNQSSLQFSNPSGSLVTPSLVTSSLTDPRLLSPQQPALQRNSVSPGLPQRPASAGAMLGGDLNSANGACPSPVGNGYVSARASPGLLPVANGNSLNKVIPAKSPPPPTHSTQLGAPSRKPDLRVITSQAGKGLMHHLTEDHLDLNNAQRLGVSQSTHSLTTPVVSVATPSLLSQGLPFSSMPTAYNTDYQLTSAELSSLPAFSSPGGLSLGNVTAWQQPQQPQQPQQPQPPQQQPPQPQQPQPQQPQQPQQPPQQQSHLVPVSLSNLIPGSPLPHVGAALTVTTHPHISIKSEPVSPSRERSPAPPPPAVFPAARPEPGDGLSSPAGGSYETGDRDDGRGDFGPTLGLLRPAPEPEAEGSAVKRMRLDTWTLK

This experiment addresses MEF2D/HDAC4 protein-protein interactions (Homo sapiens (Human), UniProt Q14814). Put plainly: Mammalian two-hybrid assay, inhibition of MEF2D and HDAC4 protein interactions (luciferase reporter in HeLa cells). In kind it is cell-based. To be noted: HeLa cells co-transfected with GAL4-MEF2D, HDAC4-VP16 and Gal4Luc; overnight treatment; luciferase normalized to Renilla. The text has this:
Detection of MEF2D and HDAC4 interactions. In this mammalian two-hybrid assay, HDAC4 and MEF2D proteins were used. […] Human epithelial carcinoma cells (HeLa) were co-transfected with the two DNA constructs (GAL4-MEF2D and HDAC4-VP16) and a reporter plasmid (Gal4Luc). […] MEF2D and HDAC4 protein interactions were detected as a result of the GAL4-MEF2D and HDAC4-VP16 protein complex binding a DNA promoter on the reporter plasmid (Gal4Luc) and driving cellular expression of a luciferase gene. The measured luciferase protein signal was proportional to the amount of MEF2D and HDAC4 protein interactions occurring with the cell.
The HDAC4 fragment lacked the catalytic domain so that the deacetylase activity was excluded from the assay.
Detection of inhibition of MEF2D and HDAC4 interactions. Next, the assay was used to test whether the compounds could disrupt the interactions between MEF2D and HDAC4. After co-expressing the GAL4-MEF2D and HDAC4-VP16 DNA constructs and reporter plasmid, the HeLa cells were treated with a test compound (10 μM) overnight. Cells transfected with the positive control GAL4VP16 fusion construct and reporter plasmid were also treated with the test compound (10 μM) overnight. As another control, DMSO was added (but kept below 0.2% V/V) to cells transfected with the positive GAL4VP16 fusion construct or the GAL4-MEF2D and HDAC4-VP16 DNA constructs. A luciferase assay was performed as described above according to the manufacturer's protocol (Promega). The luciferase response was normalized against the Renilla Luciferase as an internal control.
The relative activity and IC50 calculations. […] The relative activity, I, was the ratio of former to later, i.e. X/Y, expressed in percentile. […] The IC50 was the concentration of the compounds when X/Y equals 50.
Turning to `COc1cccc(NCc2cccc(/C=C/C(=O)Nc3ccccc3N)c2)c1` [ST3], the IC50 (usually the concentration at which inhibition is half-maximal) amounted to 4870 nM. This lies in the single-digit micromolar range.

Take `O=C(/C=C/c1cccc(CNc2cccc(OCC(F)(F)F)c2)c1)NO` [ST46]: the IC50 is 670 nM.

`O=C(/C=C/c1cccc(CNc2cccc(OC3COC3)c2)c1)NO` [ST31] returned an IC50 of 560 nM.

`O=C(/C=C/c1cccc(CNc2cccc(N3CCCCC3)c2)c1)NO` [ST39] returned a 50% inhibitory concentration (IC50) of 310 nM.

For the compound `Nc1ccccc1NC(=O)CCCCC(NC(=O)c1ccccc1)C(=O)Nc1ccncc1` (centres unmarked) [ST121], the midpoint of inhibition, the IC50, lay at 2750 nM.

`Cc1nnc(NCc2cccc(/C=C/C(=O)Nc3ccccc3N)c2)s1` [ST60]: the IC50 came out at 5040 nM.

As to `CCOC(=O)NC(CCCCC(=O)Nc1cccc(Br)c1)C(=O)Nc1ccccc1N` (centres unmarked) [ST86], the concentration for half-maximal inhibition (IC50) was more than 20000 nM.

With `CCOC(=O)NC(CCCCC(=O)NO)C(=O)Nc1cccc(Br)c1` (centres unmarked) [ST113], it took 260 nM to reach half-maximal inhibition (IC50).

`O=C(/C=C/c1cccc(CNc2nc(-c3ccncc3)cs2)c1)NO` [ST70] gave an IC50 of 140 nM.

Turning to `CCN(CC)c1cccc(NCc2cccc(/C=C/C(=O)NO)c2)c1` [ST41], the IC50 worked out at 1160 nM.

As for `O=C(CCCCC(NC(=O)c1cccnc1)C(=O)Nc1cccc(Br)c1)NO` (centres unmarked) [ST109], the IC50 amounted to 680 nM.

For `Nc1ccccc1NC(=O)CCCCC(NC(=O)c1ccccc1)C(=O)Nc1cccnc1` (centres unmarked) [ST120], the IC50 was 1560 nM.

`CCOC(=O)N[C@@H](CCCCC(=O)Nc1ccccc1N)C(=O)Nc1cccc(OCC)c1` [ST100, (S)-ethyl (7-((2-aminophenyl)amino)-1-((3-ethoxyphenyl)amino)-1,7-dioxoheptan-2-yl)carbamate] displayed an IC50 of 210 nM. Against the preceding compound, the IC50 is about 7.4-fold lower.

In the case of `COC(=O)N[C@H](CCCCC(=O)Nc1ccccc1N)C(=O)Nc1cccc(Br)c1` [ST96], the IC50 worked out at 1370 nM.

On to `O=C(/C=C/c1cccc(CNc2ccc(Cl)cc2)c1)NO` [ST26], for which the half-maximal inhibitory concentration (IC50) was determined as 790 nM. Against the preceding compound, the IC50 is about 1.7-fold lower.

Regarding `O=C(/C=C/c1cccc(CNc2cccc(N3CCNCC3)c2)c1)NO` [ST40], the IC50 came out at 260 nM.

`O=C(/C=C/c1cccc(CNc2cccc(OCC(F)F)c2)c1)NO` [ST45] had an IC50 of 560 nM.

Compound `N#Cc1cccc(NCc2cccc(/C=C/C(=O)NO)c2)c1` [ST23] displayed an IC50 of 420 nM.

For the compound `CCOC(=O)NC(CCCCC(=O)Nc1ccccc1N)C(=O)Nc1ccncc1` (centres unmarked) [ST125], the IC50 stood at 2440 nM. Compared with the last compound, the IC50 is about 5.8-fold higher.

`O=C(/C=C/c1cccc(CNc2cccc(N3CCCC3)c2)c1)NO` [ST37] had an IC50 of 590 nM.

As for `CCCC(=O)NC(CCCCC(=O)Nc1ccccc1N)C(=O)Nc1cccc(Br)c1` (centres unmarked) [ST90], half-maximal inhibition (IC50) required 460 nM. The IC50 values of the last two compounds are within 1.5-fold of each other.

Consider `O=C(/C=C/c1cccc(CNc2cccc(OC3CCC3)c2)c1)NO` [ST28], for which the IC50 was 670 nM.

On to `CCOC(=O)NC(CCCCC(=O)Nc1ccccc1N)C(=O)Nc1ccc2ncccc2c1` (centres unmarked) [ST118], for which the IC50 worked out at 490 nM.

On to `Cc1coc(NCc2cccc(/C=C/C(=O)Nc3ccccc3N)c2)n1` [ST67], for which the IC50 was found to be 3060 nM.

`CCC(=O)CNC(CCCCC(=O)NO)C(=O)Nc1cccc(Br)c1` (centres unmarked) [ST114]: the IC50 stood at 1250 nM.

Regarding `Cc1csc(NCc2cccc(/C=C/C(=O)NO)c2)n1` [ST78], the IC50 is more than 20000 nM.

The compound `CCOc1cccc(NCC2C=C(/C=C/C(=O)NO)CCC2)c1` (centres unmarked) [ST35] returned an IC50 of 4720 nM.

Regarding `CCOC(=O)NC(CCCCC(=O)Nc1ccccc1N)C(=O)Nc1ccccn1` (centres unmarked) [ST126], 3680 nM corresponded to half-maximal inhibition (IC50).

The compound `Nc1ccccc1NC(=O)/C=C/c1cccc(CNc2nc3ccccc3s2)c1` [ST50] registered an IC50 of 2550 nM.

In the case of `Cc1[nH]c2ccccc2c1CCNc1cccc(/C=C/C(=O)NO)c1` [ST71], the IC50 came out at 270 nM.

Compound `O=C(/C=C/c1cccc(CNc2cccc(OC3CC3)c2)c1)NO` [ST16] returned an IC50 of 380 nM.

`CCN1CCN(C(CCCCC(=O)Nc2ccccc2N)C(=O)Nc2cccc(Br)c2)C1=O` (centres unmarked) [ST105]: the half-inhibitory concentration (IC50) stood at 1480 nM.

As to `Nc1ccccc1NC(=O)/C=C/c1cccc(CNc2cccc(N3CCOCC3)c2)c1` [ST8], the IC50 was 2400 nM.

For the compound `Nc1ccccc1NC(=O)/C=C/c1cccc(CNc2nc(C(F)(F)F)cs2)c1` [ST62], the IC50 turned out to be 3040 nM.

`Cc1coc(NCc2cccc(/C=C/C(=O)NO)c2)n1` [ST77]: half-maximal inhibition (IC50) required 640 nM.

`CC(C)Oc1cccc(NCc2cccc(/C=C/C(=O)NO)c2)c1` [ST27] yielded an IC50 of 350 nM. Against the preceding compound, the IC50 is about 1.8-fold lower.

`O=C(CCCC[C@@H](NC(=O)c1ccccc1)C(=O)NC1CC1)NO` [ST128] gave an IC50 of 2510 nM. This IC50 is about 7.2-fold higher than that of the compound before.

Turning to `O=C(/C=C/c1cccc(CNc2ccccc2)c1)NO` [ST15], inhibition was half-maximal at 920 nM (IC50).

With `COc1cccc(NCc2cccc(/C=C/C(=O)NO)c2)c1` [ST19], the midpoint of inhibition, the IC50, lay at 320 nM.

`CC(C)CC(=O)N[C@@H](CCCCC(=O)Nc1ccccc1N)C(=O)Nc1cccc(Br)c1` [ST101] gave an IC50 of 350 nM. The IC50 values of the last two compounds are within 1.5-fold of each other.

`O=C(/C=C/c1cccc(CNc2cccc(OC3CCCC3)c2)c1)NO` [ST29]: the midpoint of inhibition, the IC50, lay at 1180 nM.

Take `O=C(/C=C/c1cccc(CNc2cccnc2)c1)NO` [ST72]: half-maximal inhibition (IC50) was put at 1550 nM. The IC50 values of the last two compounds are within 1.5-fold of each other.

As for `Cc1cnc(NCc2cccc(/C=C/C(=O)Nc3ccccc3N)c2)s1` [ST59], half-maximal inhibition (IC50) was put at 3130 nM. Compared with the last compound, the IC50 is about 2-fold higher.

Turning to `COC(=O)N[C@@H](CCCCC(=O)Nc1ccccc1N)C(=O)Nc1cccc(Br)c1` [ST103], it took 350 nM to reach half-maximal inhibition (IC50).

Turning to `Nc1ccccc1NC(=O)/C=C/c1cccc(C(C(=O)Nc2ccccc2)C(=O)Nc2ccccc2)c1` [ST58], the concentration for half-maximal inhibition (IC50) stood at 3010 nM.

In the case of `CN(C)Cc1ccc(NCc2cccc(/C=C/C(=O)NO)c2)cc1` [ST42], the IC50 turned out to be 70 nM.

As to `COc1ccc(NCC2C=C(/C=C/C(=O)NO)CCC2)cc1` (centres unmarked) [ST36], half-maximal inhibition (IC50) required 1880 nM.

As to `O=C(/C=C/c1cccc(CNc2nc(C(F)(F)F)cs2)c1)NO` [ST75], the IC50 is 410 nM.

`CCOC(=O)NC(CCCCC(=O)Nc1ccccc1N)C(=O)Nc1cccc(Br)c1` (centres unmarked) [ST80] registered an IC50 of 560 nM.

`CCN(CC)c1cccc(NCc2cccc(/C=C/C(=O)Nc3ccccc3N)c2)c1` [ST9] came in with an IC50 of 3530 nM.

`COc1cccc(NCc2ccc(F)c(/C=C/C(=O)Nc3ccccc3N)c2)c1` [ST12] displayed a half-inhibitory concentration (IC50) of 3360 nM.

In the case of `Cc1nnc(NCc2cccc(/C=C/C(=O)NO)c2)o1` [ST76], the IC50 was more than 10000 nM.

`Nc1ccccc1NC(=O)/C=C/c1cccc(Nc2nccc(-c3cccnc3)n2)c1` [ST48] returned an IC50 of more than 20000 nM.

In turn, `CCOc1cccc(NCc2cccc(/C=C/C(=O)NO)c2)c1` [ST21] had an IC50 of 350 nM.

As for `Nc1ccccc1NC(=O)/C=C/c1cccc(CNc2cccc(Br)c2)c1` [ST2], half-maximal inhibition (IC50) was put at 5940 nM.

As for `Nc1ccccc1NC(=O)/C=C/c1cccc(CNc2cccc(N3CCCC3)c2)c1` [ST10], inhibition was half-maximal at 2510 nM (IC50).

As for `Nc1ccccc1NC(=O)/C=C/c1cccc(NC(=O)OCc2cccnc2)c1` [ST68], the IC50 worked out at 2100 nM.

As to `O=C(/C=C/c1cccc(CNc2cccc(F)c2)c1)NO` [ST18], the IC50 was determined as 1030 nM.

For `Nc1ccccc1NC(=O)CCCC[C@H](NC(=O)OCC1CC1)C(=O)Nc1cccc(Br)c1` [ST99], the midpoint of inhibition, the IC50, lay at 590 nM.

In turn, `O=C(/C=C/c1cccc(CNc2nnc(C(F)(F)F)s2)c1)NO` [ST74] showed an IC50 of 320 nM.

The compound `CCc1cccc(NCc2cccc(/C=C/C(=O)NO)c2)c1` [ST22] returned an IC50 of 540 nM.

`CCOC(=O)NC(CCCCC(=O)Nc1ccccc1N)C(=O)Nc1cncc(OCC)c1` (centres unmarked) [ST127]: the IC50 was 1840 nM.

With `CCN(C)c1cccc(NCc2cccc(/C=C/C(=O)NO)c2)c1` [ST38], the IC50 was 260 nM.

For `O=C(/C=C/c1cccc(CNc2ccc(F)cc2)c1)NO` [ST17], 990 nM corresponded to half-maximal inhibition (IC50).

For `CN(C)c1ccc(/C=C2C=C(/C=C/C(=O)NO)CCC/2)cc1` [ST30], the IC50 was more than 20000 nM.

Take `CCOC(=O)NC(CCCCC(=O)Nc1ccccc1N)C(=O)Nc1cccc(C(C)(F)F)c1` (centres unmarked) [ST81]: the IC50 was found to be 850 nM. In other words, the sub-micromolar range.

`CCOC(=O)NC(CCCCC(=O)Nc1ccccc1N)C(=O)Nc1ccccc1` (centres unmarked) [ST91] came in with a half-maximal inhibitory concentration (IC50) of 1460 nM. Compared with the last compound, the IC50 is about 1.7-fold higher.

`Nc1ccccc1NC(=O)/C=C/c1cccc(CNc2cccc(N3CCCCC3)c2)c1` [ST6] showed a half-inhibitory concentration (IC50) of 2460 nM.

`O=C(/C=C/c1cccc(CNc2ccc(F)cc2F)c1)NO` [ST25] gave an IC50 of 950 nM.

As to `CSc1cccc(NCc2cccc(/C=C/C(=O)NO)c2)c1` [ST20], inhibition was half-maximal at 320 nM (IC50). This IC50 lies about 3-fold lower than the previous one.

In turn, `Nc1ccccc1NC(=O)/C=C/c1cccc(CNc2nccc(-c3cccnc3)n2)c1` [ST47] returned an IC50 of 1490 nM.

In turn, `O=C(/C=C/c1cccc(CNc2cccc(N3CCOCC3)c2)c1)NO` [ST32] came in with an IC50 of 250 nM.

Turning to `O=C(CCCC[C@@H](NC(=O)c1ccccn1)C(=O)Nc1cccc(Br)c1)NO` [ST111], half-maximal inhibition (IC50) was put at 940 nM.

`CCCC(=O)N[C@@H](CCCCC(=O)NO)C(=O)Nc1cccc(Br)c1` [ST108] gave an IC50 of 400 nM.

Compound `COc1cccc(NCc2cc(F)cc(/C=C/C(=O)NO)c2)c1` [ST44] showed an IC50 of 380 nM. The IC50 values of the last two compounds are within 1.5-fold of each other.

On to `CCOC(=O)N[C@H](CCCCC(=O)Nc1ccccc1N)C(=O)Nc1cccc(Br)c1` [ST95], for which the IC50 turned out to be 1040 nM.

`O=C(/C=C/c1cccc(CNc2ccc(F)c(F)c2)c1)NO` [ST24] yielded an IC50 of 1020 nM.

The values are drawn from patent US11230524B2, “Myocyte enhancer factor 2 (MEF2) modulators” (STANDARD LLC, priority 2017, dated 2022).
